Reference: publication PMC12830989, “Subcellular glycan-mannose receptor binding kinetics correlate with myeloid cell function” (Nature Communications, 2025)
Values joined by “and” are separate entries in the source; they are usually repeats but may differ in a detail not shown here. Identical values can stand only once. sCy5 = sulfo-Cy5

Legend:
[1] = test system: bone-marrow derived mouse dendritic cells (BMDCs); experiment: Glyco-PAINT-APP single-molecule glycan binding on live WT BMDC; conditions: for koff−1 / kon: Suppl. Fig 9, glycan SLP, median; for population of squares with binding events of high mobility (high diffusion coefficient) and low event density (kon), uniquely present for WT cells: WT BMDC versus MR-/- BMDC, Fig 4a, b; for event density, dwell time and diffusion coefficient after CytD treatment: Cytochalasin D treated versus untreated
Experimental: Single molecule imaging was performed on a Nikon Ti2 N-STORM system equipped with TIRF module, Z piezo element, perfect focus system for axial drift correction and an OkoLab incubator with temperature and CO2 controller (37 °C and 5% CO2) for live-cell imaging. Recordings were acquired using the 647 nm excitation laser (160 mW, 1.9 kW/cm^2). Upon laser excitation, fluorescence was collected by a 100x 1.49 NA oil-immersion objective, passed through a quad-band dichroic mirror (97335 Nikon), and detected by a Hamamatsu ORCA Flash 4.0 CMOS camera with 160 nm pixel size. The signal was collected using the following settings: 512 × 512 pixel region, no binning, pixel depth 16-bit, exposure time 50 ms, live-cell observation and 2D-STORM (lens out), zoom 1x, lens x0.4, and for live-cell observation at 37 °C, the correction collar was set to position 8160.
5 x 10^4 CHO-MR or 1 x 10^5 WT, MR^−/− BMDC or BMDM were seeded in 8-well glass-bottomed microscopy slides (Ibidi, 80827) in complete medium. After equilibration in the microscope incubator, fluorescent glycan was added at 5 nM for CHO-MR and 10 nM for BMDC or BMDM experiments. Then, cells were brought into focus using brightfield illumination and 2000 frames (at 50 ms intervals) were recorded within a single field-of-view at 40–60% of maximum 647 nm laser power using TIRF illumination. For indicated experiments, Cytochalasin D (Focus Biomolecules) was added to a final concentration of 10 µM for 30 min prior to acquisition.
Processing of recordings using Glyco-PAINT-APP was performed as described in a step-by-step procedure in the Supplementary Software Manual in the Supplementary Information and accompanying Supplementary Videos 1 and 2. For the TrackMate processing, a batch file (Experiment Info.csv) containing the experiment metadata and tracking parameters was created. Threshold values were set to 5, 10 or 15 such that no more than 1.500.000 spots were detected. Recordings were then processed in TrackMate using the ‘Run TrackMate Batch’ plugin provided by the Glyco-PAINT-APP. Through this plugin, spot detection and tracking by TrackMate[70] was performed as indicated in the batch file using the Simple LAP tracker algorithm with a maximum frame gap of 3, a max linking distance of 0.6 μm and a gap closing max distance of 1.2 μm. Tracks with only two spots were discarded. For the parameter sensitivity analysis, each tracking or spot detection was varied as indicated, whilst the others were kept at aforementioned values (Basis scenario).
With the Glyco-PAINT-APP utility ‘Generate Squares’, a grid of squares was overlaid, and kinetic properties for each square were calculated. Default parameters for grid processing are (deviations are mentioned in figure captions): Nr of Squares in row 20, Minimum Tracks to Calculate Tau 20, Min allowable R Squared 0.1, Min Required Density Ratio 2, Maximum Allowable Variability 10 and Neighbour Mode Free.
For every recording, a background track count was calculated by averaging the track count of the 40 (10% of the total number of squares) least dense squares. Only squares for which the track count exceeded the Min Required Density Ratio of 2 were considered (and the remaining ignored as background). For each square, the variability was calculated and only squares for which the variability was less than the Maximum Allowable Variability of 10 were considered. For squares meeting both the Minimum Required Density Ratio and Maximum Allowable Variability criteria, and containing at least the Minimum Tracks to Calculate Tau kinetic parameters, including kon, koff and MSD were calculated as in Riera et al.[10], or copied from the TrackMate Tracks table output (for velocity, displacement, and track duration).

[2] = test system: WT BMDC with OT-I T cells; experiment: T cell proliferation assay (cross-presentation to OT-I T cells), WT BMDC; type: cell-based, mouse; conditions: Fig 4f source data; 40 nM SLP pulse 2 h, MPLA-matured BMDC, 3 d coculture with OT-I; per experiment, two technical replicates
Experimental: A 70 µm filter was placed on a 50 mL tube and pre-wetted with PBS supplemented with 2 mM EDTA and 2% FCS (single-cell suspension buffer, SCSB). Freshly harvested spleens from OT-I transgenic mice were placed on the filter and disrupted with the back end of a syringe. After thorough washing, the suspension was centrifuged (10 min., 300 rcf, rt). Next, the pellet was gently resuspended in 2 mL of ACK lysing buffer (Gibco, A1049201). After 3 min incubation, the suspension was diluted with 10 mL PBS, filtered once more, and centrifuged again (300 rcf, 10 min, rt). The pellet was resuspended and subjected to magnetically-activated depletion of non-target cells using the “Naïve CD8a+ T cell isolation Kit” (Miltenyi, 130-096-543) according to manufacturer’s protocol. The obtained T cells were counted and resuspended at a density of 5-15 x 10^6/mL in 1 mL PBS with 5 µM CFSE (Biolegend) and incubated for 15 min. at 37 °C. After incubation, cells were spun down (10 min, 300 rcf, rt), washed once more with complete RPMI-1640 and were ready for downstream use.
5 x 10^4 WT, MR^−/− BMDC or 1 x 10^5 splenic DC were seeded in 96-well Nunc U-bottom plates (Thermo Scientific, 168136) and pulsed with Glycan SLP at 40 nM for indicated time. In indicated experiments, DC were pretreated with 1 µg/mL MPLA (Avanti, 699800 P) for 2 h before antigen pulse. After antigen pulse was finished, the plate was spun down for 3 min at 600 rcf, washed once with complete RPMI-1640 and 1-1.5E5 freshly isolated, CFSE-stained OT-I T cells were added to the pulsed DCs in 200 µL complete RPMI-1640 and incubated at 37 °C. After 3 d of coculture, the plate was spun down (3 min, 600 rcf, 4 °C) and supernatant was removed and stored at −80 °C. Cells were washed with FACS buffer (PBS with 2 mM EDTA, 2% FCS and 7.4 mM NaN3) and stained with Aqua Live/DEAD (Invitrogen, L34957, 1:500), TruStain FcX (Biolegend, 101319, 1:100), CD8a—APC (clone: 53-7.6, Biolegend, 100711, 1:200), and TCR V beta 5.1/5.2—eFluor450 (clone: MR9-4, eBioscience, 48-5796-82) for 30 min on ice, washed two times and acquired on a BD Fortessa I flow cytometer and analyzed using FlowJo v8. To calculate mean cycle, the CFSE dilution factor was obtained by dividing the MFI of the antigen pulsed condition by the DMSO pulsed condition expressed as Log2[69]. Statistical analysis and plotting were performed using GraphPad Prism V10.

Row | Substance | koff−1 ([1]; BMDC + CytD) | kon ([1]; BMDC + CytD) | koff−1 ([1]; BMDC) | kon ([1]; BMDC) | population of squares with binding events of high mobility (high diffusion coefficient) and low event density (kon), uniquely present for WT cells [1] | average number of cell divisions per T cell (mean cycles) [2] | event density, dwell time and diffusion coefficient after CytD treatment ([1]; BMDC)
1 | Ac-Lys(Man)-Gly-Lys(Man)-TEG-Asp-Glu-Val-Ser-Gly-Leu-Glu-Gln-Leu-Glu-Ser-Ile-Ile-Asn-Phe-Glu-Lys-Leu-Ala-Ala-Ala-Ala-Ala-Lys(sCy5)-NH2 ({Ac-K(Man)-Gly-K(Man)-TEG}-DEVSGLEQLESIINFEKLAAAAAK(sCy5)-NH2) [2 Mono(2), bivalent monomannosylated OVA SLP with sulfo-Cy5] | 81 ms | 3 evts μm−2 sec−1 | 96 ms | 2.4 evts μm−2 sec−1 | most prominent | 1.851 and 1.961 and 2.178 and 1.94 and 2.008 and 2.005 | 
2 | Ac-Lys(Man)-Lys(Man)-Lys(Man)-Lys(Man)-Lys(Man)-Lys(Man)-TEG-Asp-Glu-Val-Ser-Gly-Leu-Glu-Gln-Leu-Glu-Ser-Ile-Ile-Asn-Phe-Glu-Lys-Leu-Ala-Ala-Ala-Ala-Ala-Lys(sCy5)-NH2 ({Ac-K(Man)-K(Man)-K(Man)-K(Man)-K(Man)-K(Man)-TEG}-DEVSGLEQLESIINFEKLAAAAAK(sCy5)-NH2) [6 Mono(3), hexavalent monomannosylated OVA SLP with sulfo-Cy5] | 116 ms | 2 evts μm−2 sec−1 | 76 ms | 2.1 evts μm−2 sec−1 | most prominent | 1.958 and 1.615 and 1.514 and 1.427 and 1.57 and 1.31 | 
3 | Ac-Lys(Man)-TEG-Asp-Glu-Val-Ser-Gly-Leu-Glu-Gln-Leu-Glu-Ser-Ile-Ile-Asn-Phe-Glu-Lys-Leu-Ala-Ala-Ala-Ala-Ala-Lys(sCy5)-NH2 ({Ac-K(Man)-TEG}-DEVSGLEQLESIINFEKLAAAAAK(sCy5)-NH2) [1 Mono(1), monovalent monomannosylated OVA SLP with sulfo-Cy5] | 98 ms | 4.3 evts μm−2 sec−1 | 87 ms | 0.9 evts μm−2 sec−1 | not | 2.424 and 2.329 and 2.498 and 2.6657 and 2.752 and 2.248 | 
4 | Ac-Lys(triMan)-Gly-Lys(triMan)-TEG-Asp-Glu-Val-Ser-Gly-Leu-Glu-Gln-Leu-Glu-Ser-Ile-Ile-Asn-Phe-Glu-Lys-Leu-Ala-Ala-Ala-Ala-Ala-Lys(sCy5)-NH2 (DEVSGLEQLESIINFEKLAAAAAK; two Lys(triMan), TEG, sulfo-Cy5, C-amide; printed: Asp-Glu-Val-Ser-Gly-Leu-Glu-Gln-Leu-Glu-Ser-Ile-Ile-Asn-Phe-Glu-Lys-Leu-Ala-Ala-Ala-Ala-Ala-Lys) [2 Tri(5), bivalent trimannosylated OVA SLP with sulfo-Cy5] | 112 ms | 7 evts μm−2 sec−1 | 69 ms | 1.1 evts μm−2 sec−1 | not | 0.8018 and 0.6166 and 1.144 and 1.271 and 1.393 and 1.229 | increased significantly
5 | Ac-Lys(triMan)-Lys(triMan)-Lys(triMan)-Lys(triMan)-Lys(triMan)-Lys(triMan)-TEG-Asp-Glu-Val-Ser-Gly-Leu-Glu-Gln-Leu-Glu-Ser-Ile-Ile-Asn-Phe-Glu-Lys-Leu-Ala-Ala-Ala-Ala-Ala-Lys(sCy5)-NH2 (DEVSGLEQLESIINFEKLAAAAAK; six Lys(triMan), TEG, sulfo-Cy5, C-amide; printed: Asp-Glu-Val-Ser-Gly-Leu-Glu-Gln-Leu-Glu-Ser-Ile-Ile-Asn-Phe-Glu-Lys-Leu-Ala-Ala-Ala-Ala-Ala-Lys) [6 Tri(6), hexavalent trimannosylated OVA SLP with sulfo-Cy5] | 74 ms | 1.6 evts μm−2 sec−1 | 68 ms | 2.3 evts μm−2 sec−1 | most prominent | 0.3003 and 0.3873 and 0.4343 and 0.4095 and 0.438 | 
6 | Ac-Lys(triMan)-TEG-Asp-Glu-Val-Ser-Gly-Leu-Glu-Gln-Leu-Glu-Ser-Ile-Ile-Asn-Phe-Glu-Lys-Leu-Ala-Ala-Ala-Ala-Ala-Lys(sCy5)-NH2 (DEVSGLEQLESIINFEKLAAAAAK; Ac-Lys(triMan)-TEG, sulfo-Cy5, C-amide; printed: Asp-Glu-Val-Ser-Gly-Leu-Glu-Gln-Leu-Glu-Ser-Ile-Ile-Asn-Phe-Glu-Lys-Leu-Ala-Ala-Ala-Ala-Ala-Lys) [1 Tri(4), monovalent trimannosylated OVA SLP with sulfo-Cy5] | 124 ms | 1.5 evts μm−2 sec−1 | 88 ms | 1 evts μm−2 sec−1 |  | 1.87 and 1.461 and 1.875 and 1.671 and 1.661 and 1.884 | increased significantly
